US20200077658A1, “Pesticidal Compounds” (BASF SE, priority 2016, published 2020)

What was measured:
Assay type in all cases: in vivo
[1] = tested on: Orchid thrips (Dichromothrips corbetti); experiment: Action on orchid thrips (Dichromothrips corbetti), floral-immersion technique; conditions: adult thrips, mortality 72 hours after treatment, read-out: mortality in comparison with untreated controls
Method: Dichromothrips corbetti adults used for bioassay were obtained from a colony maintained continuously under laboratory conditions. For testing purposes, the test compound is diluted in a 1:1 mixture of acetone:water (vol:vol), plus Kinetic® HV at a rate of 0.01% v/v.
Thrips potency of each compound was evaluated by using a floral-immersion technique. All petals of individual, intact orchid flowers were dipped into treatment solution and allowed to dry in Petri dishes. Treated petals were placed into individual re-sealable plastic along with about 20 adult thrips. All test arenas were held under continuous light and a temperature of about 28° C. for duration of the assay. After 3 days, the numbers of live thrips were counted on each petal. The percent mortality was recorded 72 hours after treatment.

[2] = tested on: Silverleaf Whitefly (Bemisia argentifoli) (Adults); experiment: Action on silverleaf whitefly (Bemisia argentifoli) adults, sprayed cotton plants; conditions: Bemisia argentifolii, 72 h, 3 days after treatment, read-out: mortality in comparison with untreated controls
Method: The active compounds were formulated by a Tecan liquid handler in 100% cyclohexanone as a 10,000 ppm solution supplied in tubes. The 10,000 ppm solution was serially diluted in 100% cyclohexanone to make interim solutions. These served as stock solutions for which final dilutions were made by the Tecan in 50% acetone:50% water (v/v) into 5 or 10 ml glass vials. A nonionic surfactant (Kinetic®) was included in the solution at a volume of 0.01% (v/v). The vials were then inserted into an automated electrostatic sprayer equipped with an atomizing nozzle for application to plants/insects.
Cotton plants at the cotyledon stage (one plant per pot) were sprayed by an automated electrostatic plant sprayer equipped with an atomizing spray nozzle. The plants were dried in the sprayer fume hood and then removed from the sprayer. Each pot was placed into a plastic cup and about 10 to 12 whitefly adults (approximately 3-5 days old) were introduced. The insects were collected using an aspirator and a nontoxic Tygon® tubing connected to a barrier pipette tip. The tip, containing the collected insects, was then gently inserted into the soil containing the treated plant, allowing insects to crawl out of the tip to reach the foliage for feeding. Cups were covered with a reusable screened lid. Test plants were maintained in a growth room at about […] and about 20-40% relative humidity for 3 days, avoiding direct exposure to fluorescent light (24 hour photoperiod) to prevent trapping of heat inside the cup. Mortality was assessed 3 days after treatment, compared to untreated control plants.

[3] = tested on: boll weevil (Anthonomus grandis); experiment: Action on boll weevil (Anthonomus grandis), 96-well microtiter plate diet test; conditions: 120 h, egg and larval mortality after 5 days, read-out: mortality in comparison with untreated controls
Method: For evaluating control of boll weevil (Anthonomus grandis) the test unit consisted of 96-well-microtiter plates containing an insect diet and 5-10 A. grandis eggs.
The compounds were formulated using a solution containing 75% v/v water and 25% v/v DMSO. Different concentrations of formulated compounds were sprayed onto the insect diet at 5 μl, using a custom built micro atomizer, at two replications.
After application, microtiter plates were incubated at about 25±1° C. and about 75±5% relative humidity for 5 days. Egg and larval mortality was then visually assessed.

[4] = tested on: tobacco budworm (Heliothis virescens); experiment: Action on tobacco budworm (Heliothis virescens), 96-well microtiter plate diet test; conditions: 120 h, egg and larval mortality after 5 days, read-out: mortality in comparison with untreated controls
Method: For evaluating control of tobacco budworm (Helliothis virescens) the test unit consisted of 96-well-microtiter plates containing an insect diet and 15-25 H. virescens eggs.
The compounds were formulated using a solution containing 75% v/v water and 25% v/v DMSO. Different concentrations of formulated compounds were sprayed onto the insect diet at 10 μl, using a custom built micro atomizer, at two replications.
After application, microtiter plates were incubated at about 28±1° C. and about 80±5% relative humidity for 5 days. Egg and larval mortality was then visually assessed.

[5] = tested on: Diamond Back Moth (Plutella xylostella); experiment: Action on diamond back moth (Plutella xylostella), cabbage leaf dip; conditions: foliar, 3rd instar larvae on dipped cabbage leaves, 72 hours after treatment, read-out: mortality in comparison with untreated controls
Method: The active compound is dissolved at the desired concentration in a mixture of 1:1 (vol:vol) distilled water:acetone. Surfactant (Kinetic® HV) is added at a rate of 0.01% (vol/vol).The test solution is prepared at the day of use.
Leaves of cabbage were dipped in test solution and air-dried. Treated leaves were placed in petri dishes lined with moist filter paper and inoculated with ten 3rd instar larvae. Mortality was recorded 72 hours after treatment. Feeding damages were also recorded using a scale of 0-100%.

[6] = tested on: Southern Armyworm (Spodoptera eridania), 2nd Instar Larvae; experiment: Action on southern armyworm (Spodoptera eridania), 2nd instar larvae, sprayed lima bean plants; conditions: 96 h, 2nd instar larvae on lima bean, 4 days after treatment, read-out: mortality in comparison with untreated controls
Method: The active compounds were formulated by a Tecan liquid handler in 100% cyclohexanone as a 10,000 ppm solution supplied in tubes. The 10,000 ppm solution was serially diluted in 100% cyclohexanone to make interim solutions. These served as stock solutions for which final dilutions were made by the Tecan in 50% acetone:50% water (v/v) into 10 or 20 ml glass vials. A nonionic surfactant (Kinetic®) was included in the solution at a volume of 0.01% (v/v). The vials were then inserted into an automated electrostatic sprayer equipped with an atomizing nozzle for application to plants/insects.
Lima bean plants (variety Sieva) were grown 2 plants to a pot and selected for treatment at the 1st true leaf stage. Test solutions were sprayed onto the foliage by an automated electrostatic plant sprayer equipped with an atomizing spray nozzle. The plants were dried in the sprayer fume hood and then removed from the sprayer. Each pot was placed into perforated plastic bags with a zip closure. About 10 to 11 armyworm larvae were placed into the bag and the bags zipped closed. Test plants were maintained in a growth room at about 250C and about 20-40% relative humidity for 4 days, avoiding direct exposure to fluorescent light (24 hour photoperiod) to prevent trapping of heat inside the bags. Mortality and reduced feeding were assessed 4 days after treatment, compared to untreated control plants.

[7] = tested on: yellow fever mosquito (Aedes aegypti); experiment: whole plant or invertebrate; conditions: 48 h, larval mortality visually assessed after 2 days, read-out: mortality in comparison with untreated controls
Method: For evaluating control of yellow fever mosquito (Aedes aegypti) the test unit consisted of 96-well-microtiter plates containing 200 μl of tap water per well and 5-15 freshly hatched A. aegypti larvae.
The active compounds were formulated using a solution containing 75% (v/v) water and 25% (v/v) DMSO. Different concentrations of formulated compounds or mixtures were sprayed onto the insect diet at 2.5 μl, using a custom built micro atomizer, at two replications.
After application, microtiter plates were incubated at 28±1° C., 80±5% RH for 2 days. Larval mortality was then visually assessed.

CC(/C=N/N=C1\SCC(=O)N1c1ccccc1C(C)C)=C\c1cnc(N(C)c2ccc(OC(F)(F)F)cc2)nc1 [Compound C-7, (2Z)-3-(2-isopropylphenyl)-2-[(E)-[(E)-2-methyl-3-[2-[N-methyl-4-(trifluoromethoxy)anilino]pyrimidin-5-yl]prop-2-enylidene]hydrazono]thiazolidin-4-one]
≥ 75%: mortality at 500 ppm [1] | mortality at 300 ppm [2] | mortality at 800 ppm [3] | mortality at 800 ppm [4] | mortality at 500 ppm [5] | mortality at 300 ppm [6] | mortality at 800 ppm [7]

CC(/C=N/NC(=S)Nc1ccccc1C(C)C)=C\c1cnc(N(C)c2ccc(OC(F)(F)F)cc2)nc1 [Compound C-6, 1-(2-isopropylphenyl)-3-[(E)-[(E)-2-methyl-3-[2-[N-methyl-4-(trifluoromethoxy)anilino]pyrimidin-5-yl]prop-2-enylidene]amino]thiourea]
≥ 75%: mortality at 500 ppm [1] | mortality at 300 ppm [2] | mortality at 800 ppm [3] | mortality at 800 ppm [4] | mortality at 500 ppm [5] | mortality at 300 ppm [6] | mortality at 800 ppm [7]

CC(/C=N/N=C1\SCC(=O)N1c1ccccc1C(C)C)=C\c1cnc(N(C)c2ccc(OC(F)(F)F)cc2)c(N(C)C)c1 [Compound C-9, (2Z)-2-[(E)-[(E)-3-[5-(dimethylamino)-6-[N-methyl-4-(trifluoromethoxy)anilino]-3-pyridyl]-2-methyl-prop-2-enylidene]hydrazono]-3-(2-isopropylphenyl)thiazolidin-4-one]
≥ 75%: mortality at 500 ppm [1] | mortality at 800 ppm [3] | mortality at 800 ppm [4] | mortality at 500 ppm [5] | mortality at 300 ppm [6] | mortality at 800 ppm [7]

CC(/C=N/NC(=S)Nc1ccccc1C(C)C)=C\c1cnc(Nc2ccc(OC(F)(F)F)cc2)nc1 [Compound C-1, 1-(2-isopropylphenyl)-3-[(E)-[(E)-2-methyl-3-[2-[4-(trifluoromethoxy)anilino]pyrimidin-5-yl]prop-2-enylidene]amino]thiourea]
≥ 75%: mortality at 500 ppm [1] | mortality at 800 ppm [3] | mortality at 800 ppm [4] | mortality at 500 ppm [5] | mortality at 300 ppm [6] | mortality at 800 ppm [7]

CC(/C=N/N=C1\SCC(=O)N1c1ccccc1C(C)C)=C\c1ccc(N(C)c2ccc(OC(F)(F)F)cc2)nn1 [Compound C-27, (2Z)-3-(2-isopropylphenyl)-2-[(E)-[(E)-2-methyl-3-[6-[N-methyl-4-(trifluoromethoxy)anilino]pyridazin-3-yl]prop-2-enylidene]hydrazono]thiazolidin-4-one]
≥ 75%: mortality at 500 ppm [1] | mortality at 800 ppm [3] | mortality at 800 ppm [4] | mortality at 500 ppm [5] | mortality at 300 ppm [6] | mortality at 800 ppm [7]

CC(/C=N/NC(=S)Nc1ccccc1C(C)C)=C\c1ccc(N(C)c2ccc(OC(F)(F)F)cc2)nc1 [Compound C-15, 1-(2-isopropylphenyl)-3-[(E)-[(E)-2-methyl-3-[6-[N-methyl-4-(trifluoromethoxy)anilino]-3-pyridyl]prop-2-enylidene]amino]thiourea]
≥ 75%: mortality at 500 ppm [1] | mortality at 300 ppm [2] | mortality at 800 ppm [3] | mortality at 800 ppm [4] | mortality at 500 ppm [5] | mortality at 300 ppm [6]

CC(/C=N/NC(=S)Nc1ccccc1C(C)C)=C\c1ccc(N(C)c2ccc(OC(F)(F)F)cc2)nn1 [Compound C-26, 1-(2-isopropylphenyl)-3-[(E)-[(E)-2-methyl-3-[6-[N-methyl-4-(trifluoromethoxy)anilino]pyridazin-3-yl]prop-2-enylidene]amino]thiourea]
≥ 75%: mortality at 500 ppm [1] | mortality at 300 ppm [2] | mortality at 800 ppm [3] | mortality at 800 ppm [4] | mortality at 500 ppm [5] | mortality at 300 ppm [6]

Cc1nc(N(C)c2ccc(OC(F)(F)F)cc2)ncc1CC(C)/C=N/NC(=S)Nc1ccccc1C(C)C (stereo not shown) [Compound C-22, 1-(2-isopropylphenyl)-3-[(E)-[2-methyl-3-[4-methyl-2-[N-methyl-4-(trifluoromethoxy)anilino]pyrimidin-5-yl]propylidene]amino]thiourea]
≥ 75%: mortality at 300 ppm [2] | mortality at 800 ppm [3] | mortality at 800 ppm [4]

CC(/C=N/NC(=S)Nc1ccccc1C(C)C)=C\c1cnc(N(C)c2ccc(OC(F)(F)F)cc2)c(N(C)C)c1 [Compound C-8, 1-[(E)-[(E)-3-[5-(dimethylamino)-6-[N-methyl-4-(trifluoromethoxy)anilino]-3-pyridyl]-2-methyl-prop-2-enylidene]amino]-3-(2-isopropylphenyl)thiourea]
≥ 75%: mortality at 300 ppm [2] | mortality at 800 ppm [3] | mortality at 800 ppm [4] | mortality at 500 ppm [5] | mortality at 300 ppm [6]
